Laboratory results taken from paper PMC5453931, “Cathelicidin-trypsin inhibitor loop conjugate represents a promising antibiotic candidate with protease stability” (Scientific Reports, 2017).
Where a SMILES comes first, the peptide text is derived from it. Bridges are numbered along the chain shown (N, C = ends).

Tests used:
[1] = biological target: trypsin; assay: Trypsin inhibition assay (NBLAN hydrolysis, Dixon method); format: biochemical; details: 50 mM Tris–HCl pH 7.8, trypsin 0.1 mg/mL, 5 min pre-incubation at 37 °C, substrate NBLAN 48, 96, 192 μg/mL, 405 nm
How it was run: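 Trypsin (0.1 mg/mL final) pre-incubated 5 min at 37 °C with hybrid peptide at […] final, in 50 mM Tris–HCl, pH 7.8, at room temperature. Reaction started with NBLAN at 48, 96 or 192 μg/mL final; p-nitroaniline monitored continuously at 405 nm. Ki determined by the Dixon method.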

[2] = test system: established C. albicans biofilm; assay: Biofilm disruption assay, established biofilm (XTT, PI/SYBR Green I); format: cell-based
Experimental: TIH3F that has the best antifungal activity among the four peptides was chosen to examine the effect on the C. albicans biofilm formation and the established biofilm using previously described method with minor modifications. In the biofilm inhibition assay, after the incubation at 35 °C, C. Albicans was diluted to 1 × 10^6 CFU/mL in RPMI-1640 medium. Then 2 mL culture was added to each well of 6-well plates with coverslips at the bottom, and incubated at 35 °C in a humid chamber for 3 h. Non-adherent cells were then washed away by PBS, and series concentrations of TIH3F (0, 1, 2, 4 μg/mL) were added into the plate, with amphotericin B as control. The formation of the biofilm was determined by the XTT Cell Proliferation and Cytotoxicity Kit (KeyGEN BioTECH, Nanjing, China) after 36-h incubation. In the biofilm disruption assay, the biofilm was preformed as described above but with a longer incubation time up to 72 h. Then TIH3F and amphotericin B of series concentrations (0, 2.5, 5, 10, 25, 50 μg/mL) was added after non-adherent cells were washed out. The measurement of remaining biofilm was then determined. In order to further confirm the antifungal effect of TIH3F against C. albicans encased in biofilms, the established biofilm was treated with TIH3F (0, 5, 50 μg/mL), washed three times with PBS, and finally stained with 1 mL 1000-fold diluted PI/SYBR Green I at 30 °C in the dark for 20 min. After washing with PBS, the plate was immediately photographed with fluorescence microscope.

[3] = test system: E. coli; assay: pH stability of antimicrobial activity; format: physicochemical; details: HCl or NaOH solution, 2 mg/mL, 37 °C, 24 h, then 1 × MIC for 2 h, CFU; Fig. 3C
Experimental: Peptide was dissolved in HCl solution or NaOH solution to a final concentration of 2 mg/mL with pH value ranging from 1.0 to 11.0, and incubated at 37 °C for 24 h[64]. […] The diluted aliquots were seeded at MH agar plates and the CFU were scored after 24 h incubation at 37 °C. The number of CFU grown out of MH broth without peptide was served as control.

[4] = test system: trypsin; assay: Protease stability, RP-HPLC analysis of degradation; format: in vitro ADME
Experimental: To further examine the stability of TIH3F incubated with enzymes (trypsin and protease K) over time, the LC analysis of peptide degradation over a series of time spans (0, 6, 12, 24 h) was performed. TIH3F and protease solution were prepared in 0.1 M NH4HCO3 buffer (pH 8.2) to final molar ratio of 300:1, and incubated at 37 °C for 6, 12, and 24 h, respectively. Then 150 μL aliquots were taken at given time intervals, diluted with 150 μL of water/acetonitrile (60/40 v/v) containing 2% TFA, and analyzed by RP-HPLC (Thermo Scientific Syncronis C18 column, 250 mm × 4.6 mm, 5 μm), eluted with acetonitrile/water (containing 0.1% TFA) mixture of linear gradient concentration.

[5] = test system: Raw264.7 cells; assay: LPS-induced iNOS, cytokine and chemokine transcription (q-PCR); format: cell-based, Murine; details: LPS 100 ng/mL, 6 h, q-PCR normalized to GAPDH; Fig. 6
Experimental: Murine macrophage Raw264.7 cells (3 × 10^5/well) were treated with series concentrations of hybrid peptides and LPS (100 ng/mL) for 6 h. Total RNA was isolated using RNAiso Plus kit (Takara) and synthesized into cDNA with PrimeScript Reverse Transcriptase (Takara). The cDNA was assessed by q-PCR using SYBR green master mix kit (Takara) on a Realplex Mastercycler (Eppendorf, Germany). Gene expression was calculated after being normalized to those of GAPDH levels by Δ Δ Ct method27. The accuracy of the amplification reactions was achieved by melt curve analysis.

[6] = test system: Raw264.7 cells; assay: LPS-induced NO, cytokine and chemokine production (Griess reagent, ELISA); format: cell-based, murine; details: LPS 100 ng/mL, peptide 5, 10, 20 μg/mL, 24 h, Fig. 6
Experimental: RAW264.7 cells were cultured in DMEM (Gibco, Gaithersburg, USA), containing 10% fetal bovine serum, 100 U/mL streptomycin and 100 U/mL penicillin at 37 °C with 5% CO2, and plated in 24-well plate (1 × 10^6 cells/well). After adhesion, the cells were treated with LPS (100 ng/mL, from E. coli 055:B5, Sigma-Aldrich) in the absence or presence (5, 10, 20 μg/mL) of peptides for 24 h in the same condition. Untreated cells and LPS alone treated cells served as control. The NO was determined using Griess reagent (Beyotime, Jiangsu, China) according to the manufacturer’s protocol. ELISA kits (Joyee, shanghai, china) were used to detect the levels of pro-inflammatory cytokines and chemokines in RAW264.7 cell culture supernatant, including TNF-α, IL-6, IL-1β and MCP-1.

[7] = 20% fresh human serum, 37 °C, colonies surviving 1 × MIC, Fig. 3B
[8] = test system: trypsin or proteinase K; details: peptide:protease 300/1 mol/mol, 30 min, 37 °C, then 1 × MIC 2 h with E. coli, S. aureus, C. albicans; colony counting; Fig. 3E

CC[C@H](C)[C@@H]1NC(=O)[C@H](CO)NC(=O)[C@H](CCCCN)NC(=O)[C@H]([C@@H](C)O)NC(=O)[C@H](Cc2c[nH]c3ccccc23)NC(=O)[C@@H](N)CSSC[C@@H](C(=O)N[C@@H](CCCCN)C(=O)N[C@@H](Cc2ccccc2)C(=O)N[C@@H](Cc2ccccc2)C(=O)N[C@@H](CCCCN)C(=O)N[C@@H](CCCNC(=N)N)C(=O)N[C@@H](Cc2ccccc2)C(=O)N[C@@H](Cc2ccccc2)C(=O)N[C@@H](CCCCN)C(=O)N[C@@H](CO)C(=O)N[C@@H](Cc2ccccc2)C(=O)N[C@@H](CCCNC(=N)N)C(=O)N[C@@H](CCCNC(=N)N)C(=O)N[C@@H](C)C(=O)N[C@@H](Cc2ccccc2)C(=O)N[C@@H](CCCCN)C(=O)N[C@@H](CCCCN)C(=O)N[C@@H](Cc2ccccc2)C(N)=O)NC(=O)[C@@H]2CCCN2C(=O)[C@H](CCCCN)NC(=O)[C@@H]2CCCN2C(=O)[C@@H]2CCCN2C1=O [TIH3F] (H-CWTKSIPPKPCKFFKRFFKSFRRAFKKF-NH2; disulfide 1-11)
Ki [1]: 1500 nM | damage of established C. albicans biofilm ([2]; 5 μg/mL, biofilm preformed 72 h, XTT metabolic activity, Fig. 2B): 50% | killing of C. albicans in preformed biofilm ([2]; 50 μg/mL, PI/SYBR Green I staining, fluorescence microscopy, Fig. 2C): destroy all of the cell membranes | antimicrobial activity against E. coli after incubation at pH 1.0–11.0 [3]: unaffected | RP-HPLC absorbance of the peptide before trypsin incubation ([4]; pure peptide, 0 h, C18 RP-HPLC, Fig. 4E): 600 mAU | degradation by trypsin ([4]; trypsin, 300:1, 0.1 M NH4HCO3 pH 8.2, 37 °C, 6 h, RP-HPLC, Fig. 4): a little degradation | intact peptide remaining after trypsin incubation ([4]; trypsin, 300:1, 0.1 M NH4HCO3 pH 8.2, 37 °C, up to 24 hours, RP-HPLC, Fig. 4): remained half | RP-HPLC absorbance of the peptide after trypsin incubation ([4]; trypsin, peptide:protease 300:1, 0.1 M NH4HCO3 pH 8.2, 37 °C, 6 h, C18 RP-HPLC, Fig. 4F): 500 mAU | LPS-induced mRNA of iNOS, TNF-α, IL-1β, IL-6, MCP-1 [5]: strongest inhibitory effect | LPS-induced production of NO, TNF-α, IL-6, IL-1β, MCP-1 [6]: strongest anti-inflammation effect | kill (%) after incubation with human serum ([7]; 6 h): 75% | kill (%) / antimicrobial activity kept after incubation with human serum ([7]; 36 h): 65% | antimicrobial activity after treatment with trypsin or proteinase K [8]: negligible antimicrobial activity decrease
